One data set deals with T1, human GIP receptor (Homo sapiens, UniProt P48546).
T1 construct: expressed in transfected cells; crude membranes
T1 sequence (P48546 22-466): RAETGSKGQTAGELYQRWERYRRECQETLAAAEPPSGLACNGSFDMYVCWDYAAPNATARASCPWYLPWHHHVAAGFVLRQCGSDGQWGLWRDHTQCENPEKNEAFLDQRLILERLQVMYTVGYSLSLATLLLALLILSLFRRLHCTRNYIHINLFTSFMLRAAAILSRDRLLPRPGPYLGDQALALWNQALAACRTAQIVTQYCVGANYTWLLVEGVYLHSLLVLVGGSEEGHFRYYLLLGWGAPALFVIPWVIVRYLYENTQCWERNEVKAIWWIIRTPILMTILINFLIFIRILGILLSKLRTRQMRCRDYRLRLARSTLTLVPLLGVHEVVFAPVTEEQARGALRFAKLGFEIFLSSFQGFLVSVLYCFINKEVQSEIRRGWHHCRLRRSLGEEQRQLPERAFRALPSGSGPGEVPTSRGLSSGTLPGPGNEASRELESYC
Description: [125I]-GIP binding (SPA), human GIP receptor. Conditions: read-out: hGIPR Ki, nM (SEM, n).

Another data set deals with T2, human Gcg receptor (Homo sapiens, UniProt P47871).
T2 construct: expressed in transfected cells; crude membranes
T2 sequence (P47871 26-477): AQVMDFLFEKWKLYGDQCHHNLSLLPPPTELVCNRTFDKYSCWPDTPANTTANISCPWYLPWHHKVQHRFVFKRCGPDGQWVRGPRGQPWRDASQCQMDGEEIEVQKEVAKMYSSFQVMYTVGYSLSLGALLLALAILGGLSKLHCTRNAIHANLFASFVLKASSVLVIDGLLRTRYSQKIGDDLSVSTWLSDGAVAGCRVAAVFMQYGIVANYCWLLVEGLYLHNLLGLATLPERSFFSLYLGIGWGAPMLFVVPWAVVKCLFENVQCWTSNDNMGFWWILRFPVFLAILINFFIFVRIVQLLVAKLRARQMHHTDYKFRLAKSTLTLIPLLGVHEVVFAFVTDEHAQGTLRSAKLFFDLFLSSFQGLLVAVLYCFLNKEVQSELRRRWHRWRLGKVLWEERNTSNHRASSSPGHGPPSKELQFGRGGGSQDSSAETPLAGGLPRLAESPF
Briefly: [125I]-Glucagon binding (SPA), human Gcg receptor. The conditions noted are these: read-out: hGLcgR Ki, nM (SEM, n). A digest of the protocol: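 Cell pellets were lysed in hypotonic Tris buffer, pH 7.5, homogenized, and spun at low then high speed to give crude membranes. Ki was derived from the fitted IC50.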

Data set [1] addresses human GLP-1 receptor (GLP-1R) (Homo sapiens, UniProt P43220). Briefly: cAMP pharmacological functional assay in presence of casein, hGLP-1R. Conditions: HEK293 cells expressing hGLP-1R, 0.1% Casein, geometric mean; read-out: hGLP1R cAMP Rel EC50 nM (SEM, n). It counts as cell-based.
A short description of another data set: in vitro. As for the experimental part: The stability of peptides are compared in 1% rat small intestinal fluid (rSIF). The amount of intact peptide is measured for a sample peptide at 0, 3, 15, and 30 minutes to assess proteolytic stability. The amount of intact peptide for a sample peptide is measured in 90% pig small intestinal fluid (pSIF) at 0, 30, 45, and 60 minutes to assess the proteolytic stability.
Peptides are prepared at 0.4 mg/mL in 50 mM Tris pH8.0. […] The mixture is incubated at 37° C. at 150 rpm. Thirty μL of each sample are removed and placed into a new tube before the rSIF is added and at […]. At each time point, the reaction was quenched by 1% TFA in 50% ACN at 1:1. The samples are diluted 100 times using dilution buffer (1:1 of 1% TFA in 50% ACN: 50 mM Tris pH8) and ready for analysis using mass spectrometry (MS).
The data analysis is performed using MassLynx.

Data set [2] addresses T3, gastric inhibitory peptide receptor (GIPR) (Homo sapiens, UniProt P48546).
T3 sequence (P48546 22-466): T1 sequence (P48546 22-466)
Description: cAMP pharmacological functional assay in presence of casein, hGIPR. Type of data set: cell-based. The conditions noted are these: HEK293 cells expressing hGIPR, 0.1% Casein, geometric mean; read-out: hGIPR cAMP Rel EC50 nM (SEM, n).

The next data set concerns the target human GLP-1R (Homo sapiens, UniProt P43220). Description: [125I]-GLP-1 binding (SPA), human GLP-1 receptor. Details: expressed in transfected cells; crude membranes. Conditions: read-out: hGLP1R Ki, (nM) (SEM, n). In short, it runs like this:
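Assay buffer: HEPES 25 mM, pH 7.4, CaCl2 2.5 mM, MgCl2 1 mM, with EDTA-free protease inhibitors. Receptor came from crude cell membranes prepared by homogenization and centrifugation at 4° C. IC50s came from four-parameter fits (maximum, minimum, IC50, Hill slope) and were expressed as Ki geometric means with SEM.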

The nature of data set [3]: Body weight in diet-induced obese C57/B16 mice, 14-day treatment. Type of data set: in vivo, C57/B16 diet-induced obese (DIO) male mice. Conditions: s.c., QD, DIO mice. On the procedure:
C57/B16 diet-induced obese (DIO) male mice (Taconic, Germantown, NY) weighing 41-50 g are used. Animals are individually housed in a temperature-controlled (24° C.) facility with a 12 hour light/dark photoperiod (lights off at 10:00 AM and lights on at 10:00 PM), with free access to food and water. After 2 week acclimatization to the facility, mice are randomized to treatment groups (n=6/group) based on body weight so each group has similar starting mean body weight.
Mice are treated with either vehicle (40 mM Tris-HCl at pH 8.0) or several peptides between the dose ranges of 0.03 nmol/kg to 10 nmol/kg. Treatments are subcutaneously administered to ad libitum fed DIO mice 30-90 minutes prior to the onset of the dark cycle daily (QD) for 14 days. During the course of the study, body weight and food intake are monitored daily. […]
[formula] “0” dose group represents the vehicle-treated mice during each study. All data are expressed as mean±SEM of 5-6 mice per group. Statistical analyses are assessed by one-way ANOVA followed by Dunnett's multiple comparison test to compare treatment groups to ‘0’, dose (vehicle). *Significant differences are identified at p<0.05. Body weight change after treatment with Example compounds after 15 days. “Δ from vehicle” refers to difference between body weight at day 15 between test and vehicle groups. “% n change” refers to percent decrease in body weight between days 1 and 15 in test groups. Percent decrease in body weight for animals receiving vehicle is recorded, and is less than about 100 in each study.

The test system of data set [4] is CD8+ T cell depleted peripheral blood mononuclear cells. Description: CD4+ T cell assay for potential clinical immunogenicity. Conditions: Examples 10 uM, KLH 0.33 μM, 7 days.
Description: The purpose of this study is to determine the relative potential for clinical immunogenicity of a compound.
CD8+ T cell depleted peripheral blood mononuclear cells are prepared and labeled with Carboxyfluorescein Diacetate Succinimidyl Ester (CFSE, Invitrogen) from a cohort of 10 healthy donors. […] Cultures are incubated for 7 days at 37° C. with 5% CO2. On day 7, samples are analyzed by flow cytometry using High Throughput Sampler (HTS). Data is analyzed using FlowJo® Software (FlowJo, LLC, TreeStar).
Where [5] appears, read: rat, real gastrointestinal fluid or homogenate, pH 8.

Numbered stars: 1 amine (or outer) side, 2 acyl side, 3 side chain; on linkers, the order of the positions; unused ones are H or OH. Square brackets hold non-standard residues; d marks the D form. Side chains are listed from the residue outwards. Peptide text beside a SMILES is read from it. * marks the point of attachment. C20 diacid = O=C(O)CCCCCCCCCCCCCCCCCCC(=O)*; C18 diacid = O=C(O)CCCCCCCCCCCCCCCCC(=O)*; αMePhe(2-F) = C[C@](N)(Cc1ccccc1F)C(=O)O; γGlu = O=C(O)[C@H](CCC(=O)[*:2])N[*:1]; αMeF = C[C@](N)(Cc1ccccc1)C(=O)O; αMeL = CC(C)C[C@](C)(N)C(=O)O; AEEA = NCCOCCOCC(=O)O; Aib = CC(C)(N)C(=O)O

Chain of human GLP-1R (P43220 24-463): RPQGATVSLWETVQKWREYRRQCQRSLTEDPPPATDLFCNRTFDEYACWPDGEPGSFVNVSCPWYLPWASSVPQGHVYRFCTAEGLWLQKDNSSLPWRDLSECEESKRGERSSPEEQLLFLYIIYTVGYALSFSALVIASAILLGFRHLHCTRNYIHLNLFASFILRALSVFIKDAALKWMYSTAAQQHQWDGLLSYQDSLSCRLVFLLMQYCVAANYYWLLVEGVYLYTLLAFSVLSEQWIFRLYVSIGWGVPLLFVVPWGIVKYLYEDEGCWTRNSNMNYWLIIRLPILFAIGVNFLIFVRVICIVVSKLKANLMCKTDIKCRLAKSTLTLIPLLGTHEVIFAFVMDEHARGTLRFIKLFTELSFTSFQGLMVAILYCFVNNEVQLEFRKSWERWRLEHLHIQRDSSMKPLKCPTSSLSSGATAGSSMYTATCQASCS
Chain of human GLP-1 receptor (GLP-1R) (P43220 24-463): as above

As a reminder, the Ki is the equilibrium dissociation constant of an inhibitor or competing ligand from its target. As a reminder, the EC50 is the concentration that produces a half-maximal response. Broadly, the share remaining is the share of the starting amount still present when the sample was taken. Low readings indicate more turnover, high ones less turnover. Turning to `CC[C@H](C)[C@H](NC(=O)[C@H](CC(C)C)NC(=O)[C@H](Cc1ccc(O)cc1)NC(=O)[C@H](CCC(=O)O)NC(=O)[C@@H](NC(=O)[C@H](Cc1ccccc1)NC(=O)[C@H](C)NC(=O)C(C)(C)NC(=O)[C@H](CCC(N)=O)NC(=O)[C@H](C)NC(=O)[C@H](CCCCNC(=O)COCCOCCNC(=O)COCCOCCNC(=O)CC[C@H](NC(=O)CCCCCCCCCCCCCCCCCCC(=O)O)C(=O)O)NC(=O)[C@H](CCCCN)NC(=O)[C@H](CC(=O)O)NC(=O)[C@H](CC(C)C)NC(=O)[C@](C)(CC(C)C)NC(=O)[C@@H](NC(=O)[C@H](CO)NC(=O)[C@H](Cc1ccc(O)cc1)NC(=O)[C@H](CC(=O)O)NC(=O)[C@H](CO)NC(=O)[C@@H](NC(=O)[C@](C)(Cc1ccccc1)NC(=O)[C@@H](NC(=O)CNC(=O)[C@H](CCC(=O)O)NC(=O)C(C)(C)NC(=O)[C@@H](N)Cc1ccc(O)cc1)[C@@H](C)O)[C@@H](C)O)[C@@H](C)CC)[C@@H](C)CC)C(=O)N[C@@H](CCC(=O)O)C(=O)NCC(=O)NCC(=O)N1CCC[C@H]1C(=O)N[C@@H](CO)C(=O)N[C@@H](CO)C(=O)NCC(=O)N[C@@H](C)C(=O)N1CCC[C@H]1C(=O)N1CCC[C@H]1C(=O)N1CCC[C@H]1C(=O)N[C@@H](CO)C(N)=O` [Example 69], the figures for the Ki at human GIP receptor, at human Gcg receptor and on human GLP-1R were 0.03 nM, 22.1 nM and 1.22 nM, respectively. Moreover, the EC50 in data set [1] was found to be 0.0844 nM; in data set [2] it was 0.0712 nM. In the data set “in vitro”, the “percentage of peptide not cleaved using rSIF” value was determined as 100%. The same compound registered an amount remaining at 0.05 h, 0.4 mg/mL in “in vitro” (setting [5]) of 2.2%. The same compound returned a share remaining at 0.25 h, 0.4 mg/mL in “in vitro” (setting [5]) of 0%. The compound further displayed an amount remaining at 1 h, 0.4 mg/mL in “in vitro” (setting [5]) of 0%.

Take `CC[C@H](C)[C@H](NC(=O)[C@H](CC(C)C)NC(=O)[C@H](Cc1ccc(O)cc1)NC(=O)[C@H](CCC(=O)O)NC(=O)[C@@H](NC(=O)[C@H](Cc1ccccc1)NC(=O)[C@H](CCC(=O)O)NC(=O)C(C)(C)NC(=O)[C@H](CCC(N)=O)NC(=O)[C@H](C)NC(=O)[C@H](CCCCNC(=O)COCCOCCNC(=O)COCCOCCNC(=O)CC[C@H](NC(=O)CCCCCCCCCCCCCCCCC(=O)O)C(=O)O)NC(=O)[C@H](CCC(=O)O)NC(=O)[C@H](CC(=O)O)NC(=O)[C@H](CC(C)C)NC(=O)[C@](C)(CC(C)C)NC(=O)[C@@H](NC(=O)[C@H](CO)NC(=O)[C@H](Cc1ccc(O)cc1)NC(=O)[C@H](CC(=O)O)NC(=O)[C@H](CO)NC(=O)[C@@H](NC(=O)[C@](C)(Cc1ccccc1F)NC(=O)[C@@H](NC(=O)CNC(=O)[C@H](CCC(=O)O)NC(=O)C(C)(C)NC(=O)[C@@H](N)Cc1ccc(O)cc1)[C@@H](C)O)[C@@H](C)O)[C@@H](C)CC)[C@@H](C)CC)C(=O)N[C@@H](CCC(=O)O)C(=O)NCC(=O)NCC(N)=O` [Example 104] (H-Y[Aib]EGT[αMePhe(2-F)]TSDYSI[αMeL]LDEK([AEEA-AEEA-γGlu-C18 diacid])AQ[Aib]EFIEYLIEGG-NH2): the Ki amounted to 0.0565 nM at human GIP receptor, 123 nM on human Gcg receptor and 3.91 nM on human GLP-1R. The concentration giving a half-maximal response (EC50) was found to be 0.0248 nM in data set [1] and 0.0323 nM in data set [2]. Moreover, the “percent body weight after 14-day of treatment” value in data set [3] (dose 0.03 nmol/kg) came out at 94.0%; in data set [3] (dose 0.1 nmol/kg), 94.1%; in data set [3] (dose 0.3 nmol/kg) it was 89.0%; in data set [3] (dose 1 nmol/kg) it was 82.7%; in data set [3] (dose 3 nmol/kg), 70.8%; in data set [3] (dose 10 nmol/kg), 71.3%.

On to `CC[C@H](C)[C@H](NC(=O)[C@H](CC(C)C)NC(=O)[C@H](Cc1ccc(O)cc1)NC(=O)[C@H](CCC(=O)O)NC(=O)[C@@H](NC(=O)[C@H](Cc1ccccc1)NC(=O)[C@H](CCC(=O)O)NC(=O)C(C)(C)NC(=O)[C@H](CCC(N)=O)NC(=O)[C@H](C)NC(=O)[C@H](CCCCNC(=O)COCCOCCNC(=O)COCCOCCNC(=O)CC[C@H](NC(=O)CCCCCCCCCCCCCCCCCCC(=O)O)C(=O)O)NC(=O)[C@H](CCCCN)NC(=O)[C@H](CC(=O)O)NC(=O)[C@H](CC(C)C)NC(=O)[C@](C)(CC(C)C)NC(=O)[C@@H](NC(=O)[C@H](CO)NC(=O)[C@H](Cc1ccc(O)cc1)NC(=O)[C@H](CC(=O)O)NC(=O)[C@H](CO)NC(=O)[C@@H](NC(=O)[C@](C)(Cc1ccccc1)NC(=O)[C@@H](NC(=O)CNC(=O)[C@H](CCC(=O)O)NC(=O)C(C)(C)NC(=O)[C@@H](N)Cc1ccc(O)cc1)[C@@H](C)O)[C@@H](C)O)[C@@H](C)CC)[C@@H](C)CC)C(=O)N[C@@H](CCC(=O)O)C(=O)NCC(=O)NCC(=O)N1CCC[C@H]1C(=O)N[C@@H](CO)C(=O)N[C@@H](CO)C(=O)NCC(N)=O` [Example 123] (H-Y[Aib]EGT[αMeF]TSDYSI[αMeL]LDKK([AEEA-AEEA-γGlu-C20 diacid])AQ[Aib]EFIEYLIEGGPSSG-NH2), for which the Ki is 0.0469 nM at human GIP receptor, 80.1 nM on human Gcg receptor and 1.31 nM on human GLP-1R. Further, the EC50 is 0.0344 nM in data set [1] and 0.0423 nM in data set [2]. Also, the “percent body weight after 14-day of treatment” value in data set [3] (dose 0.03 nmol/kg) turned out to be 94.7%; in data set [3] (dose 0.1 nmol/kg) it was 90.5%; in data set [3] (dose 0.3 nmol/kg), 86.5%; in data set [3] (dose 1 nmol/kg) it was 81.3%; in data set [3] (dose 3 nmol/kg), 75.1%; in data set [3] (dose 10 nmol/kg) it was 68.6%.

Consider “keyhole limpet hemocyanin [KLH, reference compound]”, for which, in data set [4], the “% Donor Response (CD4+ T cell response)” value was 100% and the “Median Response Strength in positive donors (CDI)” value is listed as 391 CDI.

For the origin of these results see patent US12252524B2, “GIP/GLP1 co-agonist compounds” (Eli Lilly and Company, priority 2018, dated 2025).
